Assay results from patent US20150197492A1, “NOVEL INDENO[1,2-c]QUINOLIN-11-ONE DERIVATIVES, PREPARATION METHOD AND APPLICATION THEREOF” (National Defense Medical Center, priority 2014, published 2015).

Key:
Type in all cases: cell-based
human PC-3 cells = test: Sulforhodamine B (SRB) assay, cytotoxicity against PC-3 cells; details: SRB assay, PC-3 cells
Procedure: Add 5% Fetal Bovine Serum (FBS) to 96-well plate and fix the cells with 10% TCA after 24 hours of incubation and add the compound (T0). Add DMSO and culture for another 48 hours and the cells are fixed in 0.4% (W/V), 10% TCA and SRB, and […]. Excess SRB is washed off by 1% acetic acid and cells stained with SRB are dissolved in 10 mmol/L Trizma base. The absorbance is measured at 515 nm. The treatment time is 0 (T0), control growth (C) and the increase of the compound (Tx) in the cells are shown below and are used to calculate the increase of the concentration of the compound in percentage. Growth inhibition (GI %) is calculated using the following formula 100−[(TX−T0)/(C−T0)]×100. The 50% growth inhibition concentration (IC50) is used to confirm the concentration of compound and thus results in 50% reduction of the treated cells which control the amount of total protein.
This part of experimental results are SRB assays measuring cytotoxicity of the 26 synthesized compounds against human PC-3 cells and are summarized in Table 1 and 2.

[1] = test system: 55 to 60 cancer cell lines; details: 10 μM, 48 hours, all tested cell lines
CCRF-CEM = test: cells; details: CCRF-CEM (Leukemia), 10 μM, 48 hours
HL-60 (TB) = test: cells; details: HL-60 (TB) (Leukemia), 10 μM, 48 hours
K-562 = test: cells; details: K-562 (Leukemia), 10 μM, 48 hours
SR = test: cells; details: SR (Leukemia), 10 μM, 48 hours
HOP-62 = test: cells; details: HOP-62 (Non-Small Cell Lung Cancer), 10 μM, 48 hours
NCI-H226 = test: cells; details: NCI-H226 (Non-Small Cell Lung Cancer), 10 μM, 48 hours
NCI-H23 = test: cells; details: NCI-H23 (Non-Small Cell Lung Cancer), 10 μM, 48 hours
NCI-H460 = test: cells; details: NCI-H460 (Non-Small Cell Lung Cancer), 10 μM, 48 hours
COLO 205 = test: cells; details: COLO 205 (Colon Cancer), 10 μM, 48 hours
HCT-116 = test: cells; details: HCT-116 (Colon Cancer), 10 μM, 48 hours
HT29 = test: cells; details: HT29 (Colon Cancer), 10 μM, 48 hours
KM12 = test: cells; details: KM12 (Colon Cancer), 10 μM, 48 hours
SW-620 = test: cells; details: SW-620 (Colon Cancer), 10 μM, 48 hours
SF-295 = test: cells; details: SF-295 (CNS Cancer), 10 μM, 48 hours
SF-539 = test: cells; details: SF-539 (CNS Cancer), 10 μM, 48 hours
SK-MEL-28 = test: cells; details: SK-MEL-28 (Melanoma), 10 μM, 48 hours
SK-MEL-5 = test: cells; details: SK-MEL-5 (Melanoma), 10 μM, 48 hours
IGROV1 = test: cells; details: IGROV1 (Ovarian Cancer), 10 μM, 48 hours
NCI/ADR-RES = test: cells; details: NCI/ADR-RES (Ovarian Cancer), 10 μM, 48 hours
786-0 = test: cells; details: 786-0 (Renal Cancer), 10 μM, 48 hours
A498 = test: cells; details: A498 (Renal Cancer), 10 μM, 48 hours
RXF 393 = test: cells; details: RXF 393 (Renal Cancer), 10 μM, 48 hours
SN12C = test: cells; details: SN12C (Renal Cancer), 10 μM, 48 hours
DU-145 = test: cells; details: DU-145 (Prostate Cancer), 10 μM, 48 hours
HS 578T = test: cells; details: HS 578T (Breast Cancer), 10 μM, 48 hours
BT-549 = test: cells; details: BT-549 (Breast Cancer), 10 μM, 48 hours
T-47D = test: cells; details: T-47D (Breast Cancer), 10 μM, 48 hours
U251 = test: cells; details: U251 (CNS Cancer), 10 μM, 48 hours

COc1cccc(N2CCN(c3nc4ccccc4c4c3-c3ccc(Cl)cc3C4=O)CC2)c1 [SJ-20, 9-Chloro-6-(4-(3-methoxyphenyl)piperazin-1-yl)-11H-indeno[1,2-c]quinolin-11-one]
Toxicity (%) (human PC-3 cells): 0%
GI % (10 μM) (human PC-3 cells; 10 μM): 98.05%
Mean (mean growth percentage of the tested cancer cell lines) [1]: 92.15%
growth percentage (CCRF-CEM): 93.78%
growth percentage (HL-60 (TB)): 99.09%
growth percentage (K-562): 94.25%
growth percentage (SR): 95.05%
growth percentage (HOP-62): 90.22%
growth percentage (NCI-H226): 89.19%
growth percentage (NCI-H23): 87.22%
growth percentage (NCI-H460): 101.76%
growth percentage (COLO 205): 106.63%
growth percentage (HCT-116): 93.02%
growth percentage (HT29): 95.93%
growth percentage (KM12): 105.95%
growth percentage (SW-620): 91.16%
growth percentage (SF-295): 90.05%
growth percentage (SF-539): 83.97%
growth percentage (SK-MEL-28): 103.93%
growth percentage (SK-MEL-5): 96.87%
growth percentage (IGROV1): 80.87%
growth percentage (NCI/ADR-RES): 92.82%
growth percentage (786-0): 81.67%
growth percentage (A498): 104.53%
growth percentage (RXF 393): 78.38%
growth percentage (SN12C): 88.17%
growth percentage (DU-145): 98.98%
growth percentage (HS 578T): 71.75%
growth percentage (BT-549): 101.57%
growth percentage (T-47D): 86.68%

O=C1c2cc(Cl)ccc2-c2c(SCCO)nc3ccccc3c21 [SJ-25, 6-(2-Hydroxyethylthio)-9-chloro-11H-indeno[1,2-c]quinolin-11-one]
IC50 (human PC-3 cells; Homo sapiens, 48 hours, read-out: IC50): > 10 µM
Mean (mean growth percentage of the tested cancer cell lines) [1]: 79.52%
growth percentage (CCRF-CEM): 71.56%
growth percentage (HL-60 (TB)): 91.75%
growth percentage (K-562): 63.81%
growth percentage (SR): 61.70%
growth percentage (HOP-62): 91.46%
growth percentage (NCI-H226): 80.52%
growth percentage (NCI-H23): 66.22%
growth percentage (NCI-H460): 79.22%
growth percentage (COLO 205): 87.39%
growth percentage (HCT-116): 77.94%
growth percentage (HT29): 84.03%
growth percentage (KM12): 84.62%
growth percentage (SW-620): 86.99%
growth percentage (SF-295): 73.28%
growth percentage (SF-539): 100.05%
growth percentage (U251): 78.04%
growth percentage (SK-MEL-28): 86.90%
growth percentage (SK-MEL-5): 68.56%
growth percentage (IGROV1): 69.73%
growth percentage (NCI/ADR-RES): 73.58%
growth percentage (786-0): 100.58%
growth percentage (RXF 393): 79.39%
growth percentage (SN12C): 84.58%
growth percentage (DU-145): 92.27%
growth percentage (HS 578T): 58.28%
growth percentage (BT-549): 92.88%
growth percentage (T-47D): 63.89%

O=C1c2cc(Cl)ccc2-c2c(O)nc3ccccc3c21 [SJ-26, 6-Hydroxy-9-chloro-11H-indeno[1,2-c]quinolin-11-one]
Mean (mean growth percentage of the tested cancer cell lines) [1]: 96.60%
growth percentage (CCRF-CEM): 105.78%
growth percentage (HL-60 (TB)): 102.31%
growth percentage (K-562): 97.48%
growth percentage (SR): 77.02%
growth percentage (HOP-62): 91.26%
growth percentage (NCI-H226): 85.66%
growth percentage (NCI-H23): 81.56%
growth percentage (NCI-H460): 83.32%
growth percentage (COLO 205): 98.25%
growth percentage (HCT-116): 103.43%
growth percentage (HT29): 102.38%
growth percentage (KM12): 102.73%
growth percentage (SW-620): 95.26%
growth percentage (SF-295): 92.48%
growth percentage (SF-539): 105.79%
growth percentage (U251): 96.46%
growth percentage (SK-MEL-28): 100.02%
growth percentage (SK-MEL-5): 84.87%
growth percentage (IGROV1): 91.28%
growth percentage (NCI/ADR-RES): 97.00%
growth percentage (786-0): 114.55%
growth percentage (RXF 393): 99.93%
growth percentage (SN12C): 96.69%
growth percentage (DU-145): 111.80%
growth percentage (HS 578T): 105.98%
growth percentage (BT-549): 120.08%
growth percentage (T-47D): 67.23%
